The test system of this experiment is LTD4 (contractile responses of guinea-pig trachea). As to the kind of experiment: LTD4 antagonism in guinea-pig trachea (in vitro test, isolated tracheal spiral strip). Format: cell-based. As to conditions: Cavia porcellus, 0.5 h; test compound concentration 10^6 g/ml [sic], added 30 min prior to LTD4; isolated male guinea-pig trachea; vs paired control. The procedure: LTD4 antagonism in guinea-pig trachea
Antagonism for LTD4 was determined in isolated male guinea-pig (300-400 g) trachea prepared as spiral strip. Tracheal preparations were suspended under 1 g tension in 10 ml organ baths containing 5 μM of indomethacin and they were incubated for 1 hour prior to used. Contractile responses to LTD4 (2×10^8 g/ml) were obtained after the maximal response to histamine (10^4 M). Test compounds dissolved in 100% dimethyl sulfoxide were added to the organ baths (final concentration of 10^6 g/ml) 30 min prior to LTD4 addition, and then contractile responses to LTD4 were compared with those of control which was obtained from a paired trachea in the absence of test compounds. LTD-induced contractions were expressed as a percentage of the maximal response to histamine. The antagonism was determined as follows:
Antagonism (%)=(1.0-% contraction in test/% contraction in […]
Turning to `COc1ccc(CNc2cn[nH]c(=O)c2Cl)c2ccccc12` [Compound No. 5, 4-Chloro-5-(4-methoxy-1-naphthylmethylamino)-3(2H)pyridazinone], the inhibition (commonly the percentage by which the read-out fell short of the control) at 1 µg/mL is 79%.

The compound `COc1ccc(CNc2cn[nH]c(=O)c2Br)c2ccccc12` [Compound No. 16] registered an inhibition at 1 µg/mL of 74%.

Take `CCn1ncc(NCc2ccco2)c(Br)c1=O` [Compound No. 22, 2Ethyl-4-bromo-5-(2-furanylmethylamino)-3(2H)pyridazinone]: the inhibition at 1 µg/mL stood at 39%.

`COc1ccc(CNc2c([N+](=O)[O-])n[nH]c(=O)c2Cl)c2ccccc12` [Compound No. 30, 4-Chloro-5-(4-methoxy-1-naphthylmethylamino)-6-nitro-3(2H)pyridazinone] showed an inhibition at 1 µg/mL of 50%.

For `CCOc1n[nH]c(=O)c(Cl)c1NCc1ccc(OC)c2ccccc12` [Compound No. 31], the inhibition at 1 µg/mL worked out at 95%.

Regarding `COc1ccc(CNc2c(OC(C)C)n[nH]c(=O)c2Cl)c2ccccc12` [Compound No. 32, 4-Chloro-5-(4-methoxy-1-naphthylmethylamino)-6-i-propoxy-3(2H)pyridazinone], 1 µg/mL produced 50% inhibition.

Compound `COc1ccc(CNc2c(Cl)n[nH]c(=O)c2Cl)c2ccccc12` [Compound No. 34, 4,6-Dichloro-5-(4-methoxy-1-naphthylmethylamino)-3(2H)pyridazinone] showed an inhibition at 1 µg/mL of 99%.

Compound `CCCc1c(OCC(O)COc2ccc3c(=O)cc(C(=O)O)oc3c2CCC)ccc(C(C)=O)c1O` (centres unmarked) [FPL-55712, reference compound] returned an inhibition at 1 µg/mL of 94%.

Compound `CCn1ncc(NCc2cccc3ccccc23)c(Br)c1=O` [compound 23] came in with an inhibition at 1 µg/mL of 57%.

The compound `CCn1ncc(NCc2ccc3ccccc3c2)c(Br)c1=O` [compound 24] yielded an inhibition at 1 µg/mL of 67%.

The compound `CCn1ncc(NCc2c(OC)ccc3ccccc23)c(Br)c1=O` [compound 25] had an inhibition at 1 µg/mL of 50%.

As to `CCn1nc(OC)c(NCc2ccc(OC)c3ccccc23)c(Cl)c1=O` [compound 38], 1 µg/mL produced 43% inhibition.

In turn, `CCCCOc1n[nH]c(=O)c(Cl)c1NCc1ccc(Cl)nc1` [compound 57] registered an inhibition at 1 µg/mL of 69%.

For `CCCCCCOc1n[nH]c(=O)c(Cl)c1NCc1cccnc1` [compound 60], at 1 µg/mL the inhibition was 96%.
